Assay: xn = mol fraction of the nth substance listed
Details: 101 kPa

N#C[C-](C#N)C#N.OCCC[n+]1ccccc1 + c1ccsc1
viscosity [mPa·s]
Details	x1 = 0.4088	x1 = 0.505	x1 = 0.5955	x1 = 0.7045	x1 = 0.8231	x1 = 0.9377	x1 = 1
293.15 K	17.5	31.5	48.6	69.3	94.1	115	126
298.15 K	14.4	25.1	36.6	52	68.9	85.4	92.5
303.15 K	12	20.4	29.3	40	52.7	64.4	69.5
308.15 K	10.2	16.9	24.1	32.4	42.1	49.9	53.8
313.15 K	8.69	14.3	19.8	26.4	33.5	39.5	42.5
318.15 K	7.53	12.2	16.9	22.1	27.4	32.2	34.6
323.15 K	6.58	10.5	14.2	18.3	22.4	26.2	28.1
328.15 K	5.8	9.03	12	15.4	18.8	21.8	23.4
333.15 K	5.15	7.96	10.5	13.3	16.1	18.5	19.8
338.15 K	4.62	7.12	9.24	11.5	13.8	15.9	16.9
343.15 K	4.16	6.33	8.11	10	11.9	13.6	14.5
348.15 K	3.96	5.89	7.4	9.06	10.7	12.3	13.1

— the CheMixHub ionic liquid set
